In EP1038870A1, “3,3-bis(aryl)-5-((N-(un)substituted)amido)naphthopyrans, their preparation, compositions and (co)polymer matrices containing them” (Corning S.A., priority 1999, dated 2000):

Experiment: Photochromic properties of lens samples (2 mm, compound in the mass of cross-linked matrix I or II) exposed to UV radiation from a xenon lamp
Type: physicochemical
Conditions: lens sample
Description: The matrix used in accordance with the present invention may be one of two types:
A homopolymer of the monomer DIACRYL 121 (D121 : tetraethoxylated Bisphenol A dimethylmethacrylate), marketed by Akzo Nobel; or
A copolymer comprised of a 50/50 mixture by weight of D121 (as above) and polyethylene glycol dimethacrylate (Molecular weight = 400) (PEGDMA 400).
10^-5 moles of at least one compound of the invention, together with 0.2% by weight of AMBN (2,2'-azobis(2-methylbutyronitrile)) provided by Akzo, are added to 10 g of formulations able to generate cross-linked matrix I or II. The formulations thus prepared are then poured into a lens mould of 2 mm thickness and then cured by heating at 60°C for 6 hours, followed by heating at 80°C for 2 hours to give a lens sample. The photochromic properties of the lens samples thus obtained were then evaluated as follows : Said lens sample, containing said photochromic compounds in its mass, is exposed to a UV radiation (source: xenon lamp).

[1] = Matrix II (50/50 D121 / PEGDMA 400 copolymer)
[2] = Matrix I (homopolymer of DIACRYL 121)

| SMILES | OID : optical induced density (D∞-D0) [1] | T0 : the transmission before exposure to UV [1] | TD15: the transmission after 15 minutes' exposure to UV [1] | λmax: the maximum absorption in the visible spectrum after UV irradiation [1] | OID : optical induced density (D∞-D0) [2] | T0 : the transmission before exposure to UV [2] | TD15: the transmission after 15 minutes' exposure to UV [2] | λmax: the maximum absorption in the visible spectrum after UV irradiation [2] |
| --- | --- | --- | --- | --- | --- | --- | --- | --- |
| C1=CC(c2ccccc2)(c2ccccc2)Oc2ccc3ccccc3c21 [Control, 3,3-bisphenyl-3H-naphtho[2,1-b]pyran, reference compound] | 0.280 | 88% | 44% | 436 nm |  |  |  |  |
| Cc1ccc(NC(=O)c2cc3ccccc3c3c2OC(c2ccccc2)(c2ccccc2)C=C3)cc1 [Example 1, 3,3-diphenyl-5-p-tolylcarbamoyl-3H-naphtho[2,1-b]pyran] |  |  |  |  | 0.315 | 87.9% | 42.6% | 477 nm |
| COc1ccc(C2(c3ccc(OC)cc3OC)C=Cc3c(c(C(=O)N4CCOCC4)cc4ccccc34)O2)c(OC)c1 [Example 2, 3,3-bis(2,4-dimethoxyphenyl)-5-morpholinocarbonyl-3H-naphtho[2,1-b]pyran] |  |  |  |  | 1.303 | 85.7% | 4.3% | 514 nm |
| CN(C)c1ccc(C2(c3ccc(N(C)C)c4ccccc34)C=Cc3c(c(C(=O)N4CCOCC4)cc4ccccc34)O2)cc1 (stereo not drawn) [Example 4, 3-(4-dimethylaminophenyl)-3-(4-dimethylaminonapthyl)-5-morpholinocarbonyl-3H-naphtho[2,1-b]pyran] |  |  |  |  | 0.325 | 65.0% | 30.8% | 556 nm |
| COc1ccc(C2(c3ccc(OC)cc3OC)C=Cc3c(c(C(=O)N4CCc5ccccc54)cc4ccccc34)O2)c(OC)c1 [Example 5, 3,3-bis(2,4-dimethoxyphenyl)-5-indolinocarbonyl--3H-naphtho[2,1-b]pyran] | 1.634 | 84.0% | 2.0% | 514 nm | 1.063 | 85.6% | 7.4% | 514 nm |
| COc1ccc(C2(c3ccc(OC)cc3OC)C=Cc3c(c(C(=O)N4CCOCC4)cc4ccccc34)O2)cc1 (stereo not drawn) [Example 6, 3-(2,4-dimethoxyphenyl)-3-(4-methoxyphenyl)-5-morpholinocarbonyl-3H-naphtho[2,1-b]pyran] | 2.146 | 84.0% | 0.6% |  | 1.931 | 85.4% | 1.0% | 510 nm |
| COc1ccc(C2(c3ccc(OC)c(OC)c3)C=Cc3c(c(C(=O)N4CCOCC4)cc4ccccc34)O2)c(OC)c1 (stereo not drawn) [Example 7, 3-(2,4-dimethoxyphenyl)-3-(3,4-dimethoxyphenyl)-5-morpholinocarbonyl-3H-naphtho[2,1-b]pyran] | 0.805 | 88.1% | 13.8% | 512 nm | 0.746 | 88.0% | 15.8% | 512 nm |
| COc1ccc(C2(c3ccc(N4CCCCC4)cc3)C=Cc3c(c(C(=O)N4CCCCC4)cc4ccccc34)O2)c(OC)c1 (stereo not drawn) [Example 8, 3-(2,4-dimethoxyphenyl)-3-(p-N-piperidinophenyl)-5-piperidinocarbonyl-3H-naphtho[2,1-b]pyran] | 0.769 | 85.8% | 14.6% | 570 nm | 0.637 | 85.4% | 19.7% | 570 nm |
| COc1ccc(C2(c3ccc(OC)cc3OC)C=Cc3c(c(C(=O)N4CCCCC4)cc4ccccc34)O2)c(OC)c1 [Example 9, 3,3-bis(2,4-dimethoxyphenyl)-5-piperidinocarbonyl-3H-naphtho[2,1-b]pyran] | 0.765 | 89.0% | 15.3% | 504 nm |  |  |  |  |
